Test results: PubChem BioAssay AID256 (DTP/NCI, 2004)
Toxic doses and inconclusive results are not listed. The calls were made as follows: active = survival T/C of 150% or more; inactive = T/C below 125% in these data.

System: CD2F1 mice, L1210 leukemia ip, survival T/C
Assay: NCI In Vivo Anticancer Drug Screen. Data for tumor model L1210 Leukemia (intraperitoneal) in CD2F1 (CDF1) mice
Details: endpoint: mean survival time, higher = longer survival
In short: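 Mice carrying a transplanted tumor received test compound or vehicle alone. The value is the measurement in the treated group divided by that in the vehicle-treated control group.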

[1] = dose: 100.0 mg/kg/injection, schedule: Q01DX009 (ip), vehicle: saline with Tween-80
[2] = dose: 200.0 mg/kg/injection, schedule: Q01DX009 (ip), vehicle: saline with Tween-80
[3] = dose: 50.0 mg/kg/injection, schedule: Q04DX002 (ip), vehicle: saline with Tween-80
[4] = dose: 100.0 mg/kg/injection, schedule: Q01DX001 (ip), vehicle: saline with Tween-80
[5] = dose: 200.0 mg/kg/injection, schedule: Q01DX001 (ip), vehicle: saline with Tween-80
[6] = dose: 400.0 mg/kg/injection, schedule: Q01DX001 (ip), vehicle: saline with Tween-80
[7] = dose: 50.0 mg/kg/injection, schedule: Q04DX003 (ip), vehicle: saline with Tween-80
[8] = dose: 100.0 mg/kg/injection, schedule: Q04DX003 (ip), vehicle: saline with Tween-80
[9] = dose: 200.0 mg/kg/injection, schedule: Q04DX003 (ip), vehicle: saline with Tween-80

Measured: T/C

COc1ccc(C(=O)NS(=O)(=O)c2ccc(C)cc2)cc1
inactive: [1] 103 % of control | [2] 98 % of control | dose: 400.0 mg/kg/injection, schedule: Q01DX009 (ip), vehicle: saline with Tween-80 104 % of control

O=C(CCC(=O)Nc1ccc(S(=O)(=O)NCCO)cc1)Nc1ccc(S(=O)(=O)NCCO)cc1
inactive: dose: 12.5 mg/kg/injection, schedule: Q01DX001 (ip), vehicle: saline with Tween-80 105 % of control | dose: 12.5 mg/kg/injection, schedule: Q04DX002 (ip), vehicle: saline with Tween-80 96 % of control | dose: 25.0 mg/kg/injection, schedule: Q01DX001 (ip), vehicle: saline with Tween-80 107 % of control | dose: 25.0 mg/kg/injection, schedule: Q04DX002 (ip), vehicle: saline with Tween-80 96 % of control | dose: 50.0 mg/kg/injection, schedule: Q01DX001 (ip), vehicle: saline with Tween-80 97 % of control | [3] 86 % of control

NC(=O)C(O)(c1ccc(Br)cc1)C(Cl)Cl (stereo not drawn)
inactive: dose: 28.5 mg/kg/injection, schedule: Q04DX002 (ip), vehicle: saline with Tween-80 97 % of control | [3] 107 % of control | dose: 57.0 mg/kg/injection, schedule: Q04DX002 (ip), vehicle: saline with Tween-80 95 % of control | dose: 100.0 mg/kg/injection, schedule: Q04DX002 (ip), vehicle: saline with Tween-80 102 % of control | dose: 114.0 mg/kg/injection, schedule: Q04DX002 (ip), vehicle: saline with Tween-80 98 % of control

CC(=O)OC1CCC2(C)C(=CCC3C2CCC2(C)C(C(C)C(=O)O)CCC32)C1 (stereo not drawn)
inactive: [4] 102 % of control | [5] 100 % of control | [6] 96 % of control

O=C1C(Cl)=C(NCc2ccc(Cl)cc2)C(=O)c2ccccc21
inactive: dose: 25.0 mg/kg/injection, schedule: Q04DX003 (ip), vehicle: saline with Tween-80 102 % of control | [7] 91 % of control | [8] 91 % of control

C=C1CC2C=CC1C2 (stereo not drawn) (tested in a mixture with another compound)
inactive: dose: 80.5 mg/kg/injection, schedule: Q01DX009 (ip), vehicle: saline with Tween-80 90 % of control

O=C(N/N=C/c1ccc(O)cc1)c1ccccc1
inactive: dose: 100.0 mg/kg/injection, schedule: Q01DX001 (ip), vehicle: other 100 % of control | dose: 100.0 mg/kg/injection, schedule: Q01DX009 (ip), vehicle: Klucel (hydroxypropylcellulose) (HPC) 100 % of control | dose: 200.0 mg/kg/injection, schedule: Q01DX001 (ip), vehicle: other 94 % of control | dose: 200.0 mg/kg/injection, schedule: Q01DX009 (ip), vehicle: Klucel (hydroxypropylcellulose) (HPC) 96 % of control | dose: 400.0 mg/kg/injection, schedule: Q01DX001 (ip), vehicle: other 103 % of control | dose: 400.0 mg/kg/injection, schedule: Q01DX009 (ip), vehicle: Klucel (hydroxypropylcellulose) (HPC) 94 % of control

Cn1nc(C#N)c2ccccc21
inactive: dose: 100.0 mg/kg/injection, schedule: Q01DX001 (ip), vehicle: saline 100 % of control | dose: 200.0 mg/kg/injection, schedule: Q01DX001 (ip), vehicle: saline 102 % of control | dose: 400.0 mg/kg/injection, schedule: Q01DX001 (ip), vehicle: saline 103 % of control

O=C1CSC(c2ccccc2)N1 (stereo not drawn)
inactive: [7] 102 % of control | [8] 100 % of control | [9] 100 % of control

CCC(C)(O)c1cnc(CC(C)C)c(=O)n1O (stereo not drawn)
inactive: dose: 75.0 mg/kg/injection, schedule: Q01DX001 (ip), vehicle: saline 98 % of control | dose: 150.0 mg/kg/injection, schedule: Q01DX001 (ip), vehicle: saline 102 % of control

S=C1NC(/C=C/c2ccccc2)Nc2ccccc21 (stereo not drawn)
inactive: [8] 91 % of control | [9] 87 % of control

O=C(Nc1ccc2ccccc2c1-c1c(NC(=O)c2ccccc2)ccc2ccccc12)c1ccccc1
inactive: [4] 91 % of control | [6] 91 % of control

O=[N+]([O-])c1ccc(COc2ccc(Cl)cc2)cc1
inactive: [8] 92 % of control | [9] 103 % of control | dose: 400.0 mg/kg/injection, schedule: Q04DX003 (ip), vehicle: saline with Tween-80 94 % of control

COC(=O)C(=O)O
inactive: [1] 93 % of control | dose: 100.0 mg/kg/injection, schedule: Q04DX003 (ip), vehicle: saline 95 % of control | [2] 95 % of control | dose: 200.0 mg/kg/injection, schedule: Q04DX003 (ip), vehicle: saline 104 % of control | dose: 400.0 mg/kg/injection, schedule: Q04DX003 (ip), vehicle: saline 93 % of control

CC(=O)Nc1ccc(S(=O)(=O)N(CCO)CCO)cc1
inactive: [4] 100 % of control | dose: 100.0 mg/kg/injection, schedule: Q01DX009 (ip), vehicle: saline sonified 100 % of control | [5] 102 % of control | dose: 200.0 mg/kg/injection, schedule: Q01DX009 (ip), vehicle: saline sonified 95 % of control | [6] 98 % of control | dose: 400.0 mg/kg/injection, schedule: Q01DX009 (ip), vehicle: saline sonified 97 % of control
